Experimental data from patent publication US7601716B2, “Pyridopyrazines and derivatives thereof as ALK and c-Met inhibitors” (Cephalon, Inc., priority 2006, dated 2009).

biological target: baculovirus-expressed ALK (Homo sapiens, UniProt Q9UM73); assay: ALK Kinase Assay (ELISA/TRF, PLC-γ substrate); assay type: biochemical; settings: read-out: ALK Kinase Inhibition (IC50); further: 1 µM ATP (Km level)
Procedure, shortened: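 Substrate phosphorylation by 30 ng/ml ALK (37° C, 15 min) on PLC-γ-coated wells is quantified via time-resolved europium fluorescence from an anti-phosphotyrosine antibody. Percent inhibition against log10 compound concentration yields IC50 by nonlinear regression.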

Chain of baculovirus-expressed ALK (Q9UM73 19-1620): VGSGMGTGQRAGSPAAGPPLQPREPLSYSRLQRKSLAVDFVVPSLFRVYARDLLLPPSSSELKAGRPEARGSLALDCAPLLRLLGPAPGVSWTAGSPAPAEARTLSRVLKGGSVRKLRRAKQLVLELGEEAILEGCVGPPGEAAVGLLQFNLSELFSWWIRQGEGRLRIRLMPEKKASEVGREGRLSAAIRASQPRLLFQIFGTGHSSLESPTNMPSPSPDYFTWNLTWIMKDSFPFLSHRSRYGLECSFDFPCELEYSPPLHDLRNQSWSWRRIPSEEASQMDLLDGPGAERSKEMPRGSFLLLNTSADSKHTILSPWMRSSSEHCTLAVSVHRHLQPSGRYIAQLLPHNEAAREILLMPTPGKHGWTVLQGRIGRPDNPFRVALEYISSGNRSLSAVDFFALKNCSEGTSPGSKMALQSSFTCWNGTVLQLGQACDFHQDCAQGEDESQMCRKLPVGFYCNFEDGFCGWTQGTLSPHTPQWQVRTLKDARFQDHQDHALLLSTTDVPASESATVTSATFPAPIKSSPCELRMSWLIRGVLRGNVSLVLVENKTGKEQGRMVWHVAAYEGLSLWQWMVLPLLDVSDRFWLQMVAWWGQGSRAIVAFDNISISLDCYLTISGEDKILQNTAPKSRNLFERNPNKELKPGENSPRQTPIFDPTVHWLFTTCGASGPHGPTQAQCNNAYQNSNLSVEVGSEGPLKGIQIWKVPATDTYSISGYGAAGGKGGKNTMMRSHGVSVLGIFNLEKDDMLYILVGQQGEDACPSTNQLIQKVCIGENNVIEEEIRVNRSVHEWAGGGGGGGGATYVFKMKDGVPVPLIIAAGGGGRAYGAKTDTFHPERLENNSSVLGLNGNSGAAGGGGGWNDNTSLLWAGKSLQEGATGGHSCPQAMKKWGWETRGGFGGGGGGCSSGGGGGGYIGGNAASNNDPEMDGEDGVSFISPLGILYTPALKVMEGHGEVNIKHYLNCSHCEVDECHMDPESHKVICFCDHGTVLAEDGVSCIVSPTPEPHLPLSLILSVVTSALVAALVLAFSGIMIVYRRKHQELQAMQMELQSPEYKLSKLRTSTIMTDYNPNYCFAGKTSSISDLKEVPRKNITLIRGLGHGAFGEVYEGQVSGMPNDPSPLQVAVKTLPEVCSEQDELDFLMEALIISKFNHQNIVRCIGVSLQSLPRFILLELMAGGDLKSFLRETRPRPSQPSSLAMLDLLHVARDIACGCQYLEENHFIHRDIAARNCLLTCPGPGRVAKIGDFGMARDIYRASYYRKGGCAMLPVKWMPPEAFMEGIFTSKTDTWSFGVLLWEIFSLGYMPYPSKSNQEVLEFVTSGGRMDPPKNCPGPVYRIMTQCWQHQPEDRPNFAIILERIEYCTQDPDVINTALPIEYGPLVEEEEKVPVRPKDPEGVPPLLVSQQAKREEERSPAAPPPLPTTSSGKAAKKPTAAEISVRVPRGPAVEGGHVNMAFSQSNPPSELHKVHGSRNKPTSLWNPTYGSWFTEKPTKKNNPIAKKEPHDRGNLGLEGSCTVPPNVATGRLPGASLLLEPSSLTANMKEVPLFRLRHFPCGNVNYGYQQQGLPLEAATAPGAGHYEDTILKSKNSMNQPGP

| IC50 [nM] | SMILES |
| --- | --- |
| 1000 to 10000 | COc1cccc(CNC(=O)c2cccc(-c3cnc4c(c3)N(Cc3cc(Cl)ccc3C(F)(F)F)CCN4)c2)c1 [Example 353, 3-{1-[5-Chloro-2-(trifluoromethyl)benzyl]-1,2,3,4-tetrahydropyrido[2,3-b]pyrazin-7-yl}-N-(3-methoxybenzyl)benzamide] |
| 100 to 1000 | O=C(NCc1cc(C(F)(F)F)cc(C(F)(F)F)c1)c1cccc(-c2cnc3c(c2)N(Cc2cc(Cl)ccc2C(F)(F)F)CCN3)c1 [Example 332, N-[3,5-Bis(trifluoromethyl)benzyl]-3-{1-[5-chloro-2-(trifluoromethyl)benzyl]-1,2,3,4-tetrahydropyrido[2,3-b]pyrazin-7-yl}benzamide] |
| 100 to 1000 | O=C(NCc1cccnc1)c1cccc(-c2cnc3c(c2)N(Cc2cc(Cl)ccc2C(F)(F)F)CCN3)c1 [Example 335, 3-{1-[5-Chloro-2-(trifluoromethyl)benzyl]-1,2,3,4-tetrahydropyrido[2,3-b]pyrazin-7-yl}-N-pyridin-3-ylmethylbenzamide] |
| 100 to 1000 | COc1ccccc1N1CCN(C(=O)c2cccc(-c3cnc4c(c3)N(Cc3cc(Cl)ccc3C(F)(F)F)CCN4)c2)CC1 [Example 311, (3-{1-[5-Chloro-2-(trifluoromethyl)benzyl]-1,2,3,4-tetrahydropyrido[2,3-b]pyrazin-7-yl}phenyl)-[4-(2-methoxyphenyl)piperazin-1-yl]methanone] |
| 100 to 1000 | O=C(c1cccc(-c2cnc3c(c2)N(Cc2cc(Cl)ccc2C(F)(F)F)CCN3)c1)N1CCCC1c1cccnc1 (centres unmarked) [Example 366, (3-{1-[5-Chloro-2-(trifluoromethyl)benzyl]-1,2,3,4-tetrahydropyrido[2,3-b]pyrazin-7-yl}phenyl)-(2-pyridin-3-ylpyrrolidin-1-yl)methanone] |
| 100 to 1000 | O=C(NCc1ccccc1)c1ccc(-c2cnc3c(c2)N(Cc2cc(Cl)ccc2C(F)(F)F)CCN3)cc1 [Example 421, N-Benzyl-4-{1-[5-chloro-2-(trifluoromethyl)benzyl]-1,2,3,4-tetrahydropyrido[2,3-b]pyrazin-7-yl}benzamide] |
| 1000 to 10000 | O=C(c1ccc(-c2cnc3c(c2)N(Cc2cc(Cl)ccc2C(F)(F)F)CCN3)cc1)N1CCN(C(c2ccccc2)c2ccccc2)CC1 [Example 377, (4-Benzhydrylpiperazin-1-yl)-(4-{1-[5-chloro-2-(trifluoromethyl)benzyl]-1,2,3,4-tetrahydropyrido[2,3-b]pyrazin-7-yl}phenyl)methanone] |
| 100 to 1000 | O=C(NC1CCc2ccccc21)c1ccc(-c2cnc3c(c2)N(Cc2cc(Cl)ccc2C(F)(F)F)CCN3)cc1 (centres unmarked) [Example 410, 4-{1-[5-Chloro-2-(trifluoromethyl)benzyl]-1,2,3,4-tetrahydropyrido[2,3-b]pyrazin-7-yl}-N-indan-1-ylbenzamide] |
| 1000 to 10000 | O=C(c1ccc(-c2cnc3c(c2)N(Cc2cc(Cl)ccc2C(F)(F)F)CCN3)cc1)N1CCN(CC2CCCCC2)CC1 [Example 428, (4-{1-[5-Chloro-2-(trifluoromethyl)benzyl]-1,2,3,4-tetrahydropyrido[2,3-b]pyrazin-7-yl}phenyl)-[4-(cyclohexylmethyl)piperazin-1-yl]methanone] |
| 100 to 1000 | O=C(c1cccc(-c2cnc3c(c2)N(Cc2cc(Cl)ccc2C(F)(F)F)CCN3)c1)N1CCN(c2cnccn2)CC1 [Example 339, (3-{1-[5-Chloro-2-(trifluoromethyl)benzyl]-1,2,3,4-tetrahydropyrido[2,3-b]pyrazin-7-yl}phenyl)-(2,3,5,6-tetrahydro-[1,2′]bipyrazinyl-4-yl)methanone] |
| 100 to 1000 | CCOC(=O)N1CCC(NC(=O)c2ccc(-c3cnc4c(c3)N(Cc3cc(Cl)ccc3C(F)(F)F)CCN4)cc2)CC1 [Example 389, 4-(4-{1-[5-Chloro-2-(trifluoromethyl)benzyl]-1,2,3,4-tetrahydropyrido[2,3-b]pyrazin-7-yl}benzoylamino)piperidine-1-carboxylic acid ethyl ester] |
| 100 to 1000 | O=C(c1ccc(-c2cnc3c(c2)N(Cc2cc(Cl)ccc2C(F)(F)F)CCN3)cc1)N1CCC(n2c(=O)[nH]c3ccccc32)CC1 [Example 372, 1-[1-(4-{1-[5-Chloro-2-(trifluoromethyl)benzyl]-1,2,3,4-tetrahydropyrido[2,3-b]pyrazin-7-yl}benzoyl)piperidin-4-yl]-1,3-dihydrobenzoimidazol-2-one] |
| < 100 | O=C(c1ccc(-c2cnc3c(c2)N(Cc2cc(Cl)ccc2C(F)(F)F)CCN3)cc1)N1CCN(c2cnccn2)CC1 [Example 406, (4-{1-[5-Chloro-2-(trifluoromethyl)benzyl]-1,2,3,4-tetrahydropyrido[2,3-b]pyrazin-7-yl}phenyl)-(2,3,5,6-tetrahydro[1,2′]bipyrazinyl-4-yl)methanone] |
| 100 to 1000 | O=C(c1cccc(-c2cnc3c(c2)N(Cc2cc(Cl)ccc2C(F)(F)F)CCN3)c1)N1CCN(c2ccccc2Cl)CC1 [Example 360, [4-(2-Chlorophenyl)piperazin-1-yl]-(3-{1-[5-chloro-2-(trifluoromethyl)benzyl]-1,2,3,4-tetrahydropyrido[2,3-b]pyrazin-7-yl}phenyl)methanone] |
| 100 to 1000 | O=C(c1cccc(-c2cnc3c(c2)N(Cc2cc(Cl)ccc2C(F)(F)F)CCN3)c1)N1CCN(c2ccccc2)CC1 [Example 306, (3-{1-[5-Chloro-2-(trifluoromethyl)benzyl]-1,2,3,4-tetrahydropyrido[2,3-b]pyrazin-7-yl}phenyl)-(4-phenylpiperazin-1-yl)methanone] |
| 100 to 1000 | COc1cccc(N2CCN(C(=O)c3cccc(-c4cnc5c(c4)N(Cc4cc(Cl)ccc4C(F)(F)F)CCN5)c3)CC2)c1 [Example 344, (3-{1-[5-Chloro-2-(trifluoromethyl)benzyl]-1,2,3,4-tetrahydropyrido[2,3-b]pyrazin-7-yl}phenyl)-[4-(3-methoxyphenyl)piperazin-1-yl]methanone] |
| 100 to 1000 | O=C(NCc1cccnc1)c1ccc(-c2cnc3c(c2)N(Cc2cc(Cl)ccc2C(F)(F)F)CCN3)cc1 [Example 401, 4-{1-[5-Chloro-2-(trifluoromethyl)benzyl]-1,2,3,4-tetrahydropyrido[2,3-b]pyrazin-7-yl}-N-pyridin-3-ylmethylbenzamide] |
| 100 to 1000 | O=C(c1cccc(-c2cnc3c(c2)N(Cc2cc(Cl)ccc2C(F)(F)F)CCN3)c1)N1CCC(N2CCOCC2)CC1 [Example 364, (3-{1-[5-Chloro-2-(trifluoromethyl)benzyl]-1,2,3,4-tetrahydropyrido[2,3-b]pyrazin-7-yl}phenyl)-(4-morpholin-4-ylpiperidin-1-yl)methanone] |
| 100 to 1000 | O=C(NC1CCN(Cc2ccccc2)CC1)c1ccc(-c2cnc3c(c2)N(Cc2cc(Cl)ccc2C(F)(F)F)CCN3)cc1 [Example 390, N-(1-Benzylpiperidin-4-yl)-4-{1-[5-chloro-2-(trifluoromethyl)benzyl]-1,2,3,4-tetrahydropyrido[2,3-b]pyrazin-7-yl}benzamide] |
| 1000 to 10000 | O=C(NCc1cccc(Cl)c1)c1cccc(-c2cnc3c(c2)N(Cc2cc(Cl)ccc2C(F)(F)F)CCN3)c1 [Example 350, N-(3-Chlorobenzyl)-3-{1-[5-Chloro-2-(trifluoromethyl)benzyl]-1,2,3,4-tetrahydropyrido[2,3-b]pyrazin-7-yl}benzamide] |
| 100 to 1000 | O=C(c1cccc(-c2cnc3c(c2)N(Cc2cc(Cl)ccc2C(F)(F)F)CCN3)c1)N1CCC(c2ccccc2)CC1 [Example 313, (3-{1-[5-Chloro-2-(trifluoromethyl)benzyl]-1,2,3,4-tetrahydropyrido[2,3-b]pyrazin-7-yl}phenyl)-(4-phenylpiperidin-1-yl)methanone] |
| 100 to 1000 | O=C(c1ccc(-c2cnc3c(c2)N(Cc2cc(Cl)ccc2C(F)(F)F)CCN3)cc1)N1CCC(c2ccccc2)CC1 [Example 375, (4-{1-[5-Chloro-2-(trifluoromethyl)benzyl]-1,2,3,4-tetrahydropyrido[2,3-b]pyrazin-7-yl}phenyl)-(4-phenylpiperidin-1-yl)methanone] |
| 100 to 1000 | O=C(c1cccc(-c2cnc3c(c2)N(Cc2cc(Cl)ccc2C(F)(F)F)CCN3)c1)N1CCN(CCc2ccccc2)CC1 [Example 359, (3-{1-[5-Chloro-2-(trifluoromethyl)benzyl]-1,2,3,4-tetrahydropyrido[2,3-b]pyrazin-7-yl}phenyl)-(4-phenethylpiperazin-1-yl)methanone] |
| 100 to 1000 | CS(=O)(=O)c1ccc(CNC(=O)c2cccc(-c3cnc4c(c3)N(Cc3cc(Cl)ccc3C(F)(F)F)CCN4)c2)cc1 [Example 347, 3-{1-[5-Chloro-2-(trifluoromethyl)benzyl]-1,2,3,4-tetrahydropyrido[2,3-b]pyrazin-7-yl}-N-(4-methanesulfonylbenzyl)benzamide] |
| 100 to 1000 | COc1ccccc1CN(C)C(=O)c1ccc(-c2cnc3c(c2)N(Cc2cc(Cl)ccc2C(F)(F)F)CCN3)cc1 [Example 432, 4-{1-[5-Chloro-2-(trifluoromethyl)benzyl]-1,2,3,4-tetrahydropyrido[2,3-b]pyrazin-7-yl}-N-(2-methoxybenzyl)-N-methylbenzamide] |
| 100 to 1000 | O=C(NC1CCN(Cc2ccccc2)C1)c1ccc(-c2cnc3c(c2)N(Cc2cc(Cl)ccc2C(F)(F)F)CCN3)cc1 (centres unmarked) [Example 427, N-(1-Benzylpyrrolidin-3-yl)-4-{1-[5-chloro-2-(trifluoromethyl)benzyl]-1,2,3,4-tetrahydropyrido[2,3-b]pyrazin-7-yl}benzamide] |
